Source: ChEMBL document CHEMBL1909046, “DrugMatrix in vitro pharmacology data”

Tests used:
[1] = biological target: Kappa-type opioid receptor (Homo sapiens, UniProt P41145); assay: DRUGMATRIX: Opiate kappa (OP2, KOP) radioligand binding (ligand: [3H] Diprenorphine); format: cell membranes, HEK293, Membrane; conditions: Not Active = under 50% inhibition at 10 µM
[2] = biological target: Nitric oxide synthase 1 (Rattus norvegicus, UniProt P29476); format: tissue-based, Cerebellum; further: in other assays of this panel Not Active means under 50% inhibition at 10 µM
Sequence of Nitric oxide synthase 1 (P29476 whole entry): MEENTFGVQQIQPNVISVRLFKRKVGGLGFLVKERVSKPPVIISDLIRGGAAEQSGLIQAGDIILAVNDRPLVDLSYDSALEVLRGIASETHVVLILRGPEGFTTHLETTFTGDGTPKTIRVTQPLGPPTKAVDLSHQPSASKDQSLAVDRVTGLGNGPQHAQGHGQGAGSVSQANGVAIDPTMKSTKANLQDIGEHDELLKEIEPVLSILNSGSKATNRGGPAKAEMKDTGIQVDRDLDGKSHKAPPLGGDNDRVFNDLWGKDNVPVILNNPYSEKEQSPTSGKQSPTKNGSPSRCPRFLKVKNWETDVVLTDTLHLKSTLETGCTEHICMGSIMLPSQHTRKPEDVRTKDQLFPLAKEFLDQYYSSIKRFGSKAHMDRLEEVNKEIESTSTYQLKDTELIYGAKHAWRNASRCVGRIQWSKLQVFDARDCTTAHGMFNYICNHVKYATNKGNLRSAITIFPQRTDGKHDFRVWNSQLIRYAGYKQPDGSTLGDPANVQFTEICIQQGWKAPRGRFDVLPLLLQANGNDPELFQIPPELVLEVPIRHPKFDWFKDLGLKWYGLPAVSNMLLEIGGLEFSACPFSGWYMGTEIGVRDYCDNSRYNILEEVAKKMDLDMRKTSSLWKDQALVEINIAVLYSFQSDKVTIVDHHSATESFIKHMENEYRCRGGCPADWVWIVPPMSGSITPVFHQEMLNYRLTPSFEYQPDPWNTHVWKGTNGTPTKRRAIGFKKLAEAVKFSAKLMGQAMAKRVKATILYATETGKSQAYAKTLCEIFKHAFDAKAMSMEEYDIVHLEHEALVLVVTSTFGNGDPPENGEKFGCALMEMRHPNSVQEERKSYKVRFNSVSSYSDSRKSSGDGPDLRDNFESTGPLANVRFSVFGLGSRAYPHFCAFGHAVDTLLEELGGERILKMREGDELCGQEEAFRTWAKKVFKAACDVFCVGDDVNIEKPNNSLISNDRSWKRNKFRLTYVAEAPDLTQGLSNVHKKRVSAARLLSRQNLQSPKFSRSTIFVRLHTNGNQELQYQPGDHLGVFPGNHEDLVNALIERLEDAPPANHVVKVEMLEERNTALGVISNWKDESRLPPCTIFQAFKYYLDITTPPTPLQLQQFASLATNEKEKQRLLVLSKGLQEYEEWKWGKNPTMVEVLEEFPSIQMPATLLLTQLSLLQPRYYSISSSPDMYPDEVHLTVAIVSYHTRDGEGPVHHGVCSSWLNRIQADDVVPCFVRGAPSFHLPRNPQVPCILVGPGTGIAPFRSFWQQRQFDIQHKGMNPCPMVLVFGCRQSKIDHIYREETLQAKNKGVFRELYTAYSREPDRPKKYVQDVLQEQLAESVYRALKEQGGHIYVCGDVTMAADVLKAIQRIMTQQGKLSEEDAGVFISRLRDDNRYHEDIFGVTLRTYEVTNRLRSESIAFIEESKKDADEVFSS

[3] = DRUGMATRIX: Tumor Necrosis Factor (TNF), Non-Selective radioligand binding (ligand: [125I] TNF-alpha); format: cell membranes, Membrane; conditions: u-937; Not Active = under 50% inhibition at 10 µM
[4] = biological target: Adenosine receptor A2a (Homo sapiens, UniProt P29274); assay: DRUGMATRIX: Adenosine A2A radioligand binding (ligand: […]); format: cell membranes, HEK293, Membrane; conditions: Not Active = under 50% inhibition at 10 µM
Sequence of Adenosine receptor A2a (P29274 whole entry): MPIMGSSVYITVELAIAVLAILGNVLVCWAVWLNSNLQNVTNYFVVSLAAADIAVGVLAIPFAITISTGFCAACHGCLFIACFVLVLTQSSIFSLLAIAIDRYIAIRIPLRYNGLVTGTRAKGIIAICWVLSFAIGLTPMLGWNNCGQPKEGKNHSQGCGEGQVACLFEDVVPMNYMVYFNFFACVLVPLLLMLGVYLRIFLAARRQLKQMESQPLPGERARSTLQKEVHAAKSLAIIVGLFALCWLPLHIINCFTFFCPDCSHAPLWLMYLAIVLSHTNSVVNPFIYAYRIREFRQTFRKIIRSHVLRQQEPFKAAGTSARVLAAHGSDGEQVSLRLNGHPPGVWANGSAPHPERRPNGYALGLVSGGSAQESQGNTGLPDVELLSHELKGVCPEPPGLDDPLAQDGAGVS

[5] = DRUGMATRIX: Purinergic P2X radioligand binding (ligand: [3H] alpha, beta-Methylene-ATP); format: cell membranes, Oryctolagus cuniculus, New Zealand albino, Urinary bladder, Membrane; conditions: Not Active = under 50% inhibition at 10 µM
[6] = DRUGMATRIX: Phosphodiesterase PDE4 enzyme inhibition (substrate: [3H]cAMP + cAMP); conditions: u-937; Not Active = under 50% inhibition at 10 µM
[7] = biological target: T1, Cytochrome P450 2A6 (Homo sapiens, UniProt P11509); conditions: bti-tn-5b1-4; further: in other assays of this panel Not Active means under 50% inhibition at 10 µM
T1 sequence (P11509 whole entry): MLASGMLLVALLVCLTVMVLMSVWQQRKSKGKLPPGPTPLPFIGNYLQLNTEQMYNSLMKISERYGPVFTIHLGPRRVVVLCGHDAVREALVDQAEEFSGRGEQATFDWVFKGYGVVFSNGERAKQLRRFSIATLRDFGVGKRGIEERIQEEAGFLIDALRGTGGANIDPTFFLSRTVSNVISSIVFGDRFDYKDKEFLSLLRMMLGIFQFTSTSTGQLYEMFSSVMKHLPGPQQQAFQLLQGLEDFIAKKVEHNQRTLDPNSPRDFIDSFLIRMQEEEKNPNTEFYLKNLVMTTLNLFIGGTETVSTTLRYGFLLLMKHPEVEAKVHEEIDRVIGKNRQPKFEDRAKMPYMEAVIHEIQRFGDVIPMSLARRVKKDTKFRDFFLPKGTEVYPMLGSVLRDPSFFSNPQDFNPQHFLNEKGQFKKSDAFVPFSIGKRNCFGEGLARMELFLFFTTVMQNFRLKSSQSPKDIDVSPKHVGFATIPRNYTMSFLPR

Sequence of Kappa-type opioid receptor (P41145 whole entry): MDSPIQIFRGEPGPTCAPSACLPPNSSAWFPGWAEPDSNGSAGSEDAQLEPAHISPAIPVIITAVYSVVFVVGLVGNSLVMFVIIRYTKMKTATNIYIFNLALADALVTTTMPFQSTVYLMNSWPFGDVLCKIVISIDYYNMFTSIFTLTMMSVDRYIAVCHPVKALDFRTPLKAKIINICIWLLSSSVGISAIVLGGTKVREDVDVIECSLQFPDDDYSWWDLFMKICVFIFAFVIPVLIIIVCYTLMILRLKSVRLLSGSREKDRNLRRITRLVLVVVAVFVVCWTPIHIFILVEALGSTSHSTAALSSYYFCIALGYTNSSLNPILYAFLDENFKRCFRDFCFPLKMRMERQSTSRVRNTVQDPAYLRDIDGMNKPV

| Compound | IC50 ([1]; hek293) | IC50 [2] | IC50 [3] | Ki [3] | IC50 ([4]; hek293) | IC50 [5] | Ki [5] | IC50 [6] | Ki [6] | IC50 [7] | Ki [7] | Ki [1] [µM] | IC50 ([1]; read-out: IC50) [µM] | IC50 ([4]; read-out: IC50) [µM] | Ki ([4]; read-out: Ki) [µM] |
| --- | --- | --- | --- | --- | --- | --- | --- | --- | --- | --- | --- | --- | --- | --- | --- |
| CCC(=O)O[C@H]1[C@H](O[C@@H]2[C@@H](C)[C@H](O[C@H]3C[C@@](C)(OC)[C@@H](O)[C@H](C)O3)[C@@H](C)C(=O)O[C@H](CC)[C@@](C)(O)[C@H](O)[C@@H](C)C(=O)[C@H](C)C[C@@]2(C)O)O[C@H](C)C[C@@H]1N(C)C [ERYTHROMYCIN PROPIONATE] | Not Active | Not Active | Not Active | Not Active | Not Active | Not Active | Not Active | Not Active | Not Active | Not Active | Not Active |  |  |  |  |
| C=C(CC)C(=O)c1ccc(OCC(=O)O)c(Cl)c1Cl [ETHACRYNIC ACID] | Not Active | Not Active | Not Active | Not Active | Not Active | Not Active | Not Active | Not Active | Not Active | Not Active | Not Active |  |  |  |  |
| C#C[C@]1(O)CC[C@H]2[C@@H]3CCc4cc(O)ccc4[C@H]3CC[C@@]21C [ETHINYL ESTRADIOL] |  | Not Active | Not Active | Not Active |  | Not Active | Not Active | Not Active | Not Active | Not Active | Not Active | 10.4 | 25.9 | 20.9 | 11.8 |
| OCCO [ETHYLENE GLYCOL] | Not Active | Not Active | Not Active | Not Active | Not Active | Not Active | Not Active | Not Active | Not Active | Not Active | Not Active |  |  |  |  |
| CC(=O)OCC(CCn1cnc2cnc(N)nc21)COC(C)=O [FAMCICLOVIR] | Not Active | Not Active | Not Active | Not Active | Not Active | Not Active | Not Active | Not Active | Not Active | Not Active | Not Active |  |  |  |  |
| O=C(O)Cc1ccc(-c2ccccc2)cc1 [FELBINAC] | Not Active | Not Active | Not Active | Not Active | Not Active | Not Active | Not Active | Not Active | Not Active | Not Active | Not Active |  |  |  |  |
| CCOC(=O)C1=C(C)NC(C)=C(C(=O)OC)C1c1cccc(Cl)c1Cl (stereo not given) [FELODIPINE] | Not Active | Not Active | Not Active | Not Active | Not Active | Not Active | Not Active | Not Active | Not Active | Not Active | Not Active |  |  |  |  |
| CC(C(=O)O)c1ccc(-c2ccccc2)c(F)c1 (stereo not given) [FLURBIPROFEN] | Not Active | Not Active | Not Active | Not Active | Not Active | Not Active | Not Active | Not Active | Not Active | Not Active | Not Active |  |  |  |  |
| NC[C@@H]1O[C@H](O[C@H]2[C@@H](O)[C@H](O[C@@H]3[C@@H](O)[C@H](N)C[C@H](N)[C@H]3O[C@H]3O[C@H](CN)[C@@H](O)[C@H](O)[C@H]3N)O[C@@H]2CO)[C@H](N)[C@@H](O)[C@@H]1O [FRAMYCETIN] | Not Active | Not Active | Not Active | Not Active | Not Active | Not Active | Not Active | Not Active | Not Active | Not Active | Not Active |  |  |  |  |
| C[C@H]([C@](O)(Cn1cncn1)c1ccc(F)cc1F)S(C)(=O)=O [GENACONAZOLE] | Not Active | Not Active | Not Active | Not Active | Not Active | Not Active | Not Active | Not Active | Not Active | Not Active | Not Active |  |  |  |  |
| Cc1c(F)c(N2CCNC(C)C2)cc2c1c(=O)c(C(=O)O)cn2C1CC1 (stereo not given) [GREPAFLOXACIN] | Not Active | Not Active | Not Active | Not Active | Not Active | Not Active | Not Active | Not Active | Not Active | Not Active | Not Active |  |  |  |  |
| N=C(N)N/N=C/c1c(Cl)cccc1Cl [GUANABENZ] | Not Active | Not Active | Not Active | Not Active | Not Active | Not Active | Not Active | Not Active | Not Active | Not Active | Not Active |  |  |  |  |
| C[C@]12CCC(=O)C=C1CC[C@@H]1[C@@H]2[C@@H](O)C[C@@]2(C)[C@H]1CC[C@]2(O)C(=O)CO [HYDROCORTISONE] | Not Active | Not Active | Not Active | Not Active | Not Active | Not Active | Not Active | Not Active | Not Active | Not Active | Not Active |  |  |  |  |
| NC[C@H]1O[C@H](O[C@H]2[C@H](O)[C@@H](O[C@H]3O[C@H](CO)[C@@H](O)[C@H](N)[C@H]3O)[C@H](N)C[C@@H]2N)[C@H](O)[C@@H](O)[C@@H]1O [KANAMYCIN] | Not Active | Not Active | Not Active | Not Active | Not Active | Not Active | Not Active | Not Active | Not Active | Not Active | Not Active |  |  |  |  |
| CC[C@H](C)C(=O)O[C@H]1C[C@@H](C)C=C2C=C[C@H](C)[C@H](CC[C@@H]3C[C@@H](O)CC(=O)O3)[C@H]21 [LOVASTATIN] | Not Active | Not Active | Not Active | Not Active | Not Active | Not Active | Not Active | Not Active | Not Active | Not Active | Not Active |  |  |  |  |
| CC(C(=O)O)c1ccc(CC2CCCC2=O)cc1 (stereo not given) [LOXOPROFEN] | Not Active | Not Active | Not Active | Not Active | Not Active | Not Active | Not Active | Not Active | Not Active | Not Active | Not Active |  |  |  |  |
| Cc1cccc(Nc2ccccc2C(=O)O)c1C [MEFENAMIC ACID] | Not Active | Not Active | Not Active | Not Active | Not Active | Not Active | Not Active | Not Active | Not Active | Not Active | Not Active |  |  |  |  |
| CC(=O)O[C@]1(C(C)=O)CC[C@H]2[C@@H]3C=C(C)C4=CC(=O)CC[C@]4(C)[C@H]3CC[C@@]21C [MEGESTROL ACETATE] | Not Active | Not Active | Not Active | Not Active | Not Active | Not Active | Not Active | Not Active | Not Active | Not Active | Not Active |  |  |  |  |
| COc1ccccc1OCC(O)COC(N)=O (stereo not given) [METHOCARBAMOL] | Not Active | Not Active | Not Active | Not Active | Not Active | Not Active | Not Active | Not Active | Not Active | Not Active | Not Active |  |  |  |  |
| CN(Cc1cnc2nc(N)nc(N)c2n1)c1ccc(C(=O)N[C@@H](CCC(=O)O)C(=O)O)cc1 [METHOTREXATE] | Not Active | Not Active | Not Active | Not Active | Not Active | Not Active | Not Active | Not Active | Not Active | Not Active | Not Active |  |  |  |  |
| COC(=O)c1ccccc1O [METHYL SALICYLATE] | Not Active | Not Active | Not Active | Not Active | Not Active | Not Active | Not Active | Not Active | Not Active | Not Active | Not Active |  |  |  |  |
| COc1ccc2cc(CCC(C)=O)ccc2c1 [NABUMETONE] | Not Active | Not Active | Not Active | Not Active | Not Active | Not Active | Not Active | Not Active | Not Active | Not Active | Not Active |  |  |  |  |
| O=C(O)c1cccnc1 [NIACIN] | Not Active | Not Active | Not Active | Not Active | Not Active | Not Active | Not Active | Not Active | Not Active | Not Active | Not Active |  |  |  |  |
